Measurements published in ChEMBL document CHEMBL2331163, “Enhancement of the water solubility of flavone glycosides by disruption of molecular planarity of the aglycone moiety” (J Nat Prod, 2013).
≈ marks a conversion by molar mass, not a printed value.

Experiments:
[1] = Lipophilicity, log P of the compound; format: physicochemical; conditions: octanol/water
[2] = Aqueous solubility of the compound in water after 2 days by HPLC analysis; format: physicochemical

Structure (SMILES)	logP [1]	solubility at 48 h [2]
C[C@@H]1O[C@@H](O[C@H]2[C@H](Oc3cc(O)c4c(=O)c(Br)c(-c5ccc(O)cc5)oc4c3)O[C@H](CO)[C@@H](O)[C@@H]2O)[C@H](O)[C@H](O)[C@H]1O	0.93	> 100 mg/mL
COc1ccc(-c2oc3cc(O[C@@H]4O[C@H](CO[C@@H]5O[C@@H](C)[C@H](O)[C@@H](O)[C@H]5O)[C@@H](O)[C@H](O)[C@H]4O)cc(O)c3c(=O)c2Br)cc1	1.17	13.8 mg/mL (≈ 20.6 mM)
COc1ccc(-c2oc3cc(O[C@@H]4O[C@H](CO[C@@H]5O[C@@H](C)[C@H](O)[C@@H](O)[C@H]5O)[C@@H](O)[C@H](O)[C@H]4O)cc(O)c3c(=O)c2O)cc1O	0.06	0.0056 mg/mL (≈ 0.00897 mM)
COc1ccc(-c2oc3cc(O[C@@H]4O[C@H](CO[C@@H]5O[C@@H](C)[C@H](O)[C@@H](O)[C@H]5O)[C@@H](O)[C@H](O)[C@H]4O)cc(O)c3c(=O)c2Cl)cc1O	0.44	231 mg/mL (≈ 359 mM)
COc1ccc(-c2oc3cc(O[C@@H]4O[C@H](CO[C@@H]5O[C@@H](C)[C@H](O)[C@@H](O)[C@H]5O)[C@@H](O)[C@H](O)[C@H]4O)cc(O)c3c(=O)c2Br)cc1O	0.61	214 mg/mL (≈ 311 mM)
COc1ccc(-c2cc(=O)c3c(O)cc(O[C@@H]4O[C@H](CO[C@@H]5O[C@@H](C)[C@H](O)[C@@H](O)[C@H]5O)[C@@H](O)[C@H](O)[C@H]4O)cc3o2)cc1 [ACACIIN]	0.84	0.0046 mg/mL (≈ 0.00776 mM)
C[C@@H]1O[C@@H](O[C@H]2[C@H](Oc3cc(O)c4c(=O)cc(-c5ccc(O)cc5)oc4c3)O[C@H](CO)[C@@H](O)[C@@H]2O)[C@H](O)[C@H](O)[C@H]1O [RHOIFOLIN]	0.71	0.114 mg/mL (≈ 0.197 mM)
